ChEMBL document CHEMBL1275573, “Inhibition of herpesvirus replication by hexadecyloxypropyl esters of purine- and pyrimidine-based phosphonomethoxyethyl nucleoside phosphonates” (Antimicrob Agents Chemother, 2008)

Legend:
Human betaherpesvirus 5 = assay: Antiviral activity against Human cytomegalovirus AD169 infected in HFF cells by plaque reduction assay; type: functional, organism-based; settings: Human betaherpesvirus 5, AD169, HFF
[1] = Cytotoxicity against human HFF cells; type: cell-based
[2] = Antiviral activity against Murine cytomegalovirus Smith infected in HFF cells by plaque reduction assay; type: functional, cell-based, Murine cytomegalovirus (strain Smith); settings: Murid betaherpesvirus 1, HFF
[3] = Selectivity index, ratio of EC50 for Human herpesvirus 6B Z29 to CC50 for human MOLT-3 cells
MOLT-3 = assay: Cytotoxicity against human MOLT3 cell after 4 hrs by MTS assay; type: functional; settings: MOLT-3, 4 h
[4] = Antiviral activity against Epstein-Barr virus p3hr-1 infected in human daudi cells; type: functional, cell-based, Epstein-barr virus strain p3hr-1; settings: human gammaherpesvirus 4, Daudi
[5] = Antiviral activity against Human herpesvirus 6A GS infected in human HSB-2 cells; type: functional, cell-based; settings: Human betaherpesvirus 6A, HSB2
[6] = Selectivity index, ratio of EC50 for Murine cytomegalovirus Smith to CC50 for human HFF cell
[7] = Cytotoxicity against human HSB2 cell after 4 hrs by MTS assay; type: functional; settings: CCRF-HSB-2, 4 h
[8] = Antiviral activity against Human herpesvirus 6B Z29 infected in human MOLT-3 cells; type: functional, cell-based; settings: Human betaherpesvirus 6B, Z29, MOLT-3
[9] = Selectivity index, ratio of EC50 for herpes simplex virus type 1 E-377 to CC50 for human HFF cell
Human alphaherpesvirus 3 = assay: Antiviral activity against Varicella zoster virus Ellen infected in HFF cells by plaque reduction assay; type: functional, organism-based; settings: Human alphaherpesvirus 3, Ellen
Daudi = assay: Cytotoxicity against human Daudi cell after 4 hrs by MTS assay; type: functional
[10] = Cytotoxicity against human HFF cells after 7 days by neutral red dye method; type: cell-based
[11] = Selectivity index, ratio of EC50 for Epstein-Barr virus P3HR-1 to CC50 for human daudi cell
[12] = Selectivity index, ratio of EC50 for herpes simplex virus type 2 MS to CC50 for human HFF cell
Human alphaherpesvirus 1 = assay: Antiviral activity against herpes simplex virus 1 E-377 infected in HFF cells by plaque reduction assay; type: functional, organism-based; settings: Human alphaherpesvirus 1, E-377, HFF
Human alphaherpesvirus 2 = assay: Antiviral activity against herpes simplex virus 2 MS infected in HFF cells by plaque reduction assay; type: functional, organism-based; settings: Human alphaherpesvirus 2, MS

Structure (SMILES) | EC50 (Human betaherpesvirus 5) [µM] | CC50 [1] [µM] | EC50 [2] [µM] | Selectivity Index [3] | CC50 (MOLT-3) [µM] | EC50 [4] [µM] | EC50 [5] [µM] | Selectivity Index [6] | CC50 [7] [µM] | EC50 [8] [µM] | Selectivity Index [9] | EC50 (Human alphaherpesvirus 3) [µM] | CC50 (Daudi) [µM] | CC50 at 168 h [10] [µM] | Selectivity Index [11] | Selectivity Index [12] | EC50 (Human alphaherpesvirus 1) [µM] | EC50 (Human alphaherpesvirus 2) [µM] | IC50 [5] [µM]
Nc1nc(=O)n(CCOCP(=O)(O)O)cc1F | > 20 | 220 | 78 | 1 | > 50 | > 50 | > 50 | 2.8 | > 41 | > 50 | – | – | – | – | – | – | – | – | –
CCCCCCCCCCCCCCCCOCCCOP(=O)(O)COCCn1ccc(N)nc1=O | > 20 | 200 | > 20 | 1 | > 50 | > 50 | > 50 | <150 | > 50 | > 50 | >1.1 | > 300 | > 100 | > 300 | <2 | >9 | 260 | 35 | –
CCCCCCCCCCCCCCCCOCCCOP(=O)(O)COCCn1cc(Br)c(N)nc1=O | 4.8 | 35 | 1.3 | 1 | > 50 | 0.03 | 38 | >230 | > 41 | > 45 | >250 | 42 | > 100 | > 300 | >3400 | >17 | 1.2 | 18 | –
CCCCCCCCCCCCCCCCOCCCOP(=O)(O)COCCn1cc(F)c(N)nc1=O | 2 | 33 | 0.08 | >1 | > 50 | 1.3 | 7.2 | 440 | 22.6 | 37 | <3 | 2.6 | > 100 | 35 | >77 | <3 | > 12 | > 12 | –
Nc1nc(NC2CC2)c2ncn(CCOCP(=O)(O)O)c2n1 | 0.4 | 150 | < 0.06 | 1 | 8.5 | 0.1 | 1 | >1700 | 3 | 6.4 | >25 | 0.8 | 20 | > 100 | 200 | >13 | 4 | 7.9 | –
Nc1ccn(CCOCP(=O)(O)O)c(=O)n1 | > 20 | 220 | 63 | 1 | > 50 | > 41 | – | >480 | > 50 | > 50 | 1 | > 300 | > 100 | > 300 | <2.4 | 1 | > 300 | > 300 | > 50
CCCCCCCCCCCCCCCCOCCCOP(=O)(O)COCCn1cnc2c(N)nc(N)nc21 | 0.5 | 170 | 0.5 | 1 | 51 | 0.8 | 2 | 240 | 6.4 | 34 | 200 | 0.3 | > 50 | 120 | >63 | 300 | 0.6 | 0.4 | –
CCCCCCCCCCCCCCCCOCCCOP(=O)(O)COCCn1cnc2c(NC3CC3)nc(N)nc21 | 0.02 | 26 | < 0.03 | 6 | 0.3 | 0.0007 | 0.05 | >3700 | 0.05 | 0.05 | 1100 | 0.03 | > 50 | 110 | >71000 | 550 | 0.1 | 0.2 | –
Nc1nc(=O)n(CCOCP(=O)(O)O)cc1Br | > 20 | 200 | > 20 | <2 | 84 | 24 | > 50 | <150 | 3.9 | > 47 | >5 | 38 | 27 | > 300 | 1.1 | >5 | > 60 | > 60 | –
Nc1nc(N)c2ncn(CCOCP(=O)(O)O)c2n1 [PMEDAP] | 13 | 170 | 0.2 | 1 | 39 | 1.2 | 15 | >500 | > 56 | 28 | >10 | 2.9 | > 50 | > 100 | >42 | >10 | > 10 | > 10 | –
